Data as given in US20060135491A1, “Vitamin D3 analog useful for the treatment of osteoporosis” (priority 2004, published 2006).

Assays:
HL-60 cells = assay: Cell differentiation, NBT reduction assay; assay type: cell-based; details: in comparison with 1α,25(OH)2D3 as control (100% activity); 4 days
Protocol: The vitamin D analog of the present invention was evaluated for its effect on cell differentiation. Falcon tissue chambers were seeded with 4×10^4 cells/cm of HL-60 cells using RPMI 1640 medium supplemented with […] FCS and gentamycin (50 μg/mL),in a final cell volume of 5 mL. The cultures were maintained at 37° C. in an atmosphere of humidified air containing 5% CO2. After 24 hours incubation, the control 1αa,25(OH)2D3 and the compound to be tested were each dissolved in ethanol and added to the cell culture with the final concentration being less than 0.2%. After 4 days, the dishes were shaken to lose adherent cells. The cells were then washed twice in RPMI medium, counted, and then assayed for differentiation markers (NBT reduction assay). Superoxide production was measured as NBT reducing activity as described by Ostrem et al. in Proc. Natl. Acad. Sci. USA, (1987) 84: 2610-2614. HL-60 cells at 1×10^6/mL were mixed with an equal volume of freshly prepared solution of phorbol 12-myristate 13-acetate (200 ng/mL) and NBT (2 μg/mL) and incubated for 30 minutes at 37° C. The percentage of cells containing black formazan deposits was determined using a hemacytometer. […]

NMRI mice = assay: In vivo determination of calcium levels; details: for Body Weight / Femur Ca / Serum Ca: 7 consecutive days
Protocol: Eight week old, male NMRI mice were obtained from the Animal Center of Leuven (Belgium) and fed a vitamin D-replete diet (0.2% calcium, 1% phosphate, 2000 U vitamin D/kg; Hope Farms, Woerden, The Netherlands). […] The control group was injected with vehicle (arachis oil). […] The following parameters were evaluated: serum calcium and femur calcium. Serum calcium was measured by a microcolorimetric assay (Sigma, St. Louis, Mo.). Femurs were removed and femur calcium content was measured in HCl-dissolved bone ash (obtained by heating for 24 hours in an oven at 100° C.), using the same technique as for serum calcium.

[1] = molecular target: T1, Human Vitamin D Binding Protein (hDBP) (Homo sapiens, UniProt P02774); assay: Affinity for human vitamin D binding protein, displacement of [3H]1α,25(OH)2D3; details: relative affinity at 50% displacement of [3H]1α,25(OH)2D3; 1α,25(OH)2D3 assigned 100%; hDBP 0.18 μM, 3 hours at 4° C.
T1 sequence (P02774 17-474): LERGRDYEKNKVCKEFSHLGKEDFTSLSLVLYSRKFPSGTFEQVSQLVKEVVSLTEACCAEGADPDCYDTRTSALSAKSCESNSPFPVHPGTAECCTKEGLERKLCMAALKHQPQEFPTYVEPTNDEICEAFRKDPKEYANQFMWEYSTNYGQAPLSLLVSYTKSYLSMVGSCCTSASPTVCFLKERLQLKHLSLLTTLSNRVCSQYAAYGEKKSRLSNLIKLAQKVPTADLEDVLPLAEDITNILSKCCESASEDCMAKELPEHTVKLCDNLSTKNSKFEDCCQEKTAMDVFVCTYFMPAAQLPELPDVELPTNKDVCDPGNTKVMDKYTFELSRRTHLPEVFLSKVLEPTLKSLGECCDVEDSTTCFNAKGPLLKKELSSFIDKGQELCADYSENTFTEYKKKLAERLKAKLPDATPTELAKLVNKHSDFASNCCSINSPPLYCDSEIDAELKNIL
Protocol: The solution was incubated for 3 hours at 4° C. Final phase separation was obtained by adding 0.5 mL of cold dextran-coated charcoal.

MCF-7 cells = assay: Cell proliferation, [3H]thymidine incorporation; assay type: cell-based; details: in comparison with 1α,25(OH)2D3 as control (100% activity); 72 hours incubation
Protocol: The compound of the present invention was evaluated for its effect on cell proliferation. […] The cultures were maintained at 37° C. in an atmosphere of humidified air containing 5% CO2. The MCF-7 cells were seeded at approximately 5×10^3 cells/well in the DMEM modified medium in a 96-well microtiter plate. […] Finally, 1 μCi of [^3H]thymidine was added to each well and the cells were harvested after a further 4 hour incubation period. The cells were harvested with a Packard Harvester and the cell count measured by a Packard Topcount System.

Vitamin D receptor (VDR) = molecular target: T2, Vitamin D receptor (VDR) (Sus scrofa, UniProt A3RGC1); details: relative affinity at 50% displacement of [3H]1α,25(OH)2D3; 1α,25(OH)2D3 assigned 100%; porcine intestinal mucosa supernatant, 4° C., 20 hours
T2 sequence (A3RGC1 1-427): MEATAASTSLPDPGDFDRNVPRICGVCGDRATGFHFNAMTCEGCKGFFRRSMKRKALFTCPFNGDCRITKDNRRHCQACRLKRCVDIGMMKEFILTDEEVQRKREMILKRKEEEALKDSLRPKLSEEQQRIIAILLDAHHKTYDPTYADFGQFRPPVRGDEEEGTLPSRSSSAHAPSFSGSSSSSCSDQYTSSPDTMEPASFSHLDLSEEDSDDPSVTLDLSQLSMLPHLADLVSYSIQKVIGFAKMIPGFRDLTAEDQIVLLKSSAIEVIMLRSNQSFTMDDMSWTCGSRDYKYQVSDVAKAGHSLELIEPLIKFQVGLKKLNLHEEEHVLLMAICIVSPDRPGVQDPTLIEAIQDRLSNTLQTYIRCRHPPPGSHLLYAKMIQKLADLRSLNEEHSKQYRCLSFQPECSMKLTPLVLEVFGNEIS

[2] = system: ovariectomized Sprague-Daley rats; assay: Three-month treatment efficacy in ovariectomized rats; assay type: in vivo; details: oral
Protocol: Efficacy was tested in 6 month old Sprague-Daley rats which were sham-operated or ovariectomized (OVX). Ovariectomized animals were sacrificed after two months as a pre-treatment control group, with remaining animals being treated for three months with vehicle or with (1R,3R)-5-{(E)-(2R,5R)-2-[2-(4-hydroxy-4-methylpentyl)-spiro[4.5]dec-7-ylidene]-ethylidene}-cyclohexane-1,3-diol (at dosages of 0.3, 1,3 or 10 μg/kg/day respectively) by oral administration. At the end of treatment, blood was obtained by cardiac puncture for evaluation of serum calcium levels. Hypercalcemia was identified as a mean value 10% greater than the OVX-vehicle group. Bone efficacy was measured using micro-CT (Scanco μCT 40) evaluation of the vertebral cancellous bone volume compared to either the final OVX-group and/or the pre-treatment OVX group.

| Structure (SMILES) | HL-60 cell differentiation, percentage activity (at 50% of the dose response) (HL-60 cells) | Body Weight (NMRI mice; 0.1 μg/kg/day i.p.) | Femur Ca (NMRI mice; 0.1 μg/kg/day i.p.) | Serum Ca (NMRI mice; 0.1 μg/kg/day i.p.) | Body Weight (NMRI mice; 0.2 μg/kg/day i.p.) | Femur Ca (NMRI mice; 0.2 μg/kg/day i.p.) | Serum Ca (NMRI mice; 0.2 μg/kg/day i.p.) | Body Weight (NMRI mice; 0.4 μg/kg/day i.p.) | Femur Ca (NMRI mice; 0.4 μg/kg/day i.p.) | Serum Ca (NMRI mice; 0.4 μg/kg/day i.p.) | estimated serum calcium level as compared with 1α,25(OH)2D3 (NMRI mice; 1α,25(OH)2D3 assigned a value of 100%, i.p., 7 days) | % hDBP binding [1] | MCF-7 cell proliferation, percentage activity (at 50% of the dose response) (MCF-7 cells) | Femur Ca (NMRI mice; 5 μg/kg/day i.p.) | Femur Ca (NMRI mice; 10 μg/kg/day i.p.) | % VDR binding (Vitamin D receptor (VDR)) | vertebral cancellous bone volume (micro-CT) ([2]; OVX rats, three months, 0.3, 1,3 or 10 μg/kg/day, vs pre-treatment and final OVX groups) | hypercalcemia (mean serum calcium 10% greater than OVX-vehicle group) ([2]; three months, at doses that increased vertebral bone volume) |
| --- | --- | --- | --- | --- | --- | --- | --- | --- | --- | --- | --- | --- | --- | --- | --- | --- | --- | --- |
| C=C1/C(=C\C=C2/CCC[C@]3(C)[C@@H]([C@H](C)CCCC(C)(C)O)CC[C@@H]23)C[C@@H](O)C[C@@H]1O [1α,25(OH)2D3, 1α,25-dihydroxyvitamin D3] | 100% | 30.5 g | 10.9 mg | 13.3 mg/dL | 27.8 g | 10.3 mg | 14.1 mg/dL | 23.2 g | 8.9 mg | 18.2 mg/dL | 100% | – | – | – | – | – | – | – |
| CC(C)(O)CCC[C@@H]1CC[C@]2(CCC/C(=C\C=C3C[C@@H](O)C[C@H](O)C3)C2)C1 [(1R,3R)-5-{(E)-(2R, 5R)-2-[2-(4-hydroxy-4-methylpentyl)-spiro[4.5]dec-7-ylidene]-ethylidene}-cyclohexane-1,3-diol] | 200% | – | – | – | – | – | – | – | 10.1 mg | – | – | 3% | 450% | 11.3 mg | 12.3 mg | 10% | significantly increase vertebral bone volume above pre-treatment and final OVX groups | did not induce hypercalcemia |
